ChEMBL document CHEMBL1255553, “Unusual antimalarial meroditerpenes from tropical red macroalgae” (Bioorg Med Chem Lett, 2010)
Values after ≈ are worked out from the molar mass of the structure shown.

Tested on: Mycobacterium tuberculosis
Test: Antimicrobial activity against vancomycin-resistant Mycobacterium tuberculosis
Assay type: functional, organism-based

| Structure (SMILES) | IC50 | MIC |
| --- | --- | --- |
| Cc1cc(O)cc(CC[C@](C)(O)CCC[C@H](C)CCC[C@H](C)CCCC(C)C)c1O | > 100 µM |  |
| CC(C)=CCC[C@@](C)(O)[C@@H]1CC/C(C)=C/CC/C(C)=C/Cc2cc(ccc2O)C(=O)O1 [CALLOPHYCOLIDE A] |  | 12 µM (≈ 5.12 µg/mL) |
| CC1=C2Cc3cc(ccc3O)C(=O)O[C@H](C(C)(C)Br)CC[C@](C)(O)[C@H](Br)CC[C@]2(C)[C@@H](Br)CC1 |  | 11 µM (≈ 7.32 µg/mL) |
| CC1=C2Cc3cc(ccc3O)C(=O)O[C@H](C(C)(C)O)CC[C@]3(C)O[C@H]3C/C=C(\C)C2CC1 (some centres undefined) |  | > 100 µM |
